Tests used:
[1] = system: Eotaxin-3 (CCL26) release in human whole blood stimulated with IL-4; assay: Human whole blood eotaxin-3 assay (IL-4 stimulated eotaxin-3 release); assay type: cell-based; settings: human whole blood stimulated with recombinant human IL-4, 48 h, geometric mean; for EC50: inhibition of eotaxin-3 release, given for test compounds with >80% Emax
Method in brief: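 Lithium-heparin human whole blood was preincubated with compound (4-fold serial dilution, 0.5% DMSO final) for 2 h at 37° C, then stimulated with recombinant human IL-4 at […] final for 48 h. Eotaxin-3 (CCL26) in the supernatant was measured by MSD immunoassay.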

[2] = target: T1, Human STAT6 (truncated, aa122-658, with N-terminal His-tag) (Homo sapiens, UniProt P42226); assay: Surface plasmon resonance (SPR) assay, binding to human STAT6; settings: Biacore 8K, 25° C, immobilized human STAT6 on CM5 chip, multi-cycle kinetics; geometric mean
T1 construct: Human STAT6 (truncated, aa122-658, with N-terminal His-tag, expressed in insect cells); His-tag (N); made in house; host or cells: insect cells
T1 sequence (P42226 122-658): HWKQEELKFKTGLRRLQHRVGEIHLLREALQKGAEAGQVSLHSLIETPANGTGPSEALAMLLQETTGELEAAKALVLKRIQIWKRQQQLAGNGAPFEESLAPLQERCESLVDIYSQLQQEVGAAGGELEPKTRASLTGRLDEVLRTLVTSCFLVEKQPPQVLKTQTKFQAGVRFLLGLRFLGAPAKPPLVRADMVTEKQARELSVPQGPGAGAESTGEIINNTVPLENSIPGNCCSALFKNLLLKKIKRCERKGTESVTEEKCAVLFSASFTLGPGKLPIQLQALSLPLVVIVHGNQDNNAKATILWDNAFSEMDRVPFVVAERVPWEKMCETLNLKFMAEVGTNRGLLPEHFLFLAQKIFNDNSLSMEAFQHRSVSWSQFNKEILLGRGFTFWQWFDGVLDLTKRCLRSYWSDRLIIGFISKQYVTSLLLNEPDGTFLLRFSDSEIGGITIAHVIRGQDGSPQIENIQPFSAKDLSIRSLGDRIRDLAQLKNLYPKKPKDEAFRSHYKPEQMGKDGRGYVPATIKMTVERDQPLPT
Method in brief: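 Truncated STAT6 (aa122-658, N-His, insect-cell expressed) was amine-coupled to a CM5 chip, and compounds were run as multi-cycle kinetics at 25 °C in PBS-P+ with 2% DMSO (60 s contact, up to 300 s dissociation). KD came from steady-state isotherms at a late report point, fitted with free and with fixed theoretical Rmax (1:1).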

Cc1c(N)ccn(-c2ccnc3c2cc(CN2CCC(c4ccc(C(=O)N(C)C)cc4)CC2)n3C)c1=O [Example 1d21, 4-[1-[[4-(4-Amino-3-methyl-2-oxo-1-pyridyl)-1-methyl-pyrrolo[2,3-b]pyridin-2-yl]methyl]-4-piperidyl]-N,N-dimethyl-benzamide]
EC50 ([1]; Homo sapiens, 48 h): 95.8 nM
Kd [2]: 21 nM

CNc1ccn(-c2ccnc3c2cc(CN2CC[C@@H](c4ccc(C(=O)N(C)C)cc4)[C@@H](F)C2)n3C)c(=O)c1 (single isomer, unassigned) [Example 1f7]
EC50 ([1]; Homo sapiens, 48 h): 245 nM
Kd [2]: 21.7 nM

COCc1c(N)ccn(-c2ccnc3c2cc(CN2CCC(c4ccc(C(=O)N(C)C)cc4)CC2)n3C)c1=O [Example 1d30, 4-[1-[[4-[4-Amino-3-(methoxymethyl)-2-oxo-1-pyridyl]-1-methyl-pyrrolo[2,3-b]pyridin-2-yl]methyl]-4-piperidyl]-N,N-dimethyl-benzamide]
EC50 ([1]; Homo sapiens, 48 h): 88.4 nM
Kd [2]: 25 nM

CNc1ccn(-c2ccnc3c2cc(CN2CC=C(c4ccc(C(=O)N(C)C)cc4C(F)(F)F)CC2)n3C)c(=O)c1 [Example 1m59, N,N-Dimethyl-4-(1-((1-methyl-4-(4-(methylamino)-2-oxopyridin-1 (2H)-yl)-1H-pyrrolo[2,3-b]pyridin-2-yl)methyl)-1,2,3,6-tetrahydropyridin-4-yl)-3-(trifluoromethyl)benzamide]
EC50 ([1]; Homo sapiens, 48 h): 96.1 nM
Kd [2]: 14.3 nM

CNc1ccn(-c2ccnc3c2cc(CN2CC=C(c4ccc(C(=O)N(C)C)cc4Cl)CC2)n3C)c(=O)c1 [Example 1m64, 3-Chloro-N,N-dimethyl-4-[1-[[1-methyl-4-[4-(methylamino)-2-oxo-1-pyridyl]pyrrolo[2,3-b]pyridin-2-yl]methyl]-3,6-dihydro-2H-pyridin-4-yl]benzamide]
EC50 ([1]; Homo sapiens, 48 h): 170 nM
Kd [2]: 12 nM

CN(C)C(=O)c1ccc(C2CCN(Cc3cc4c(-n5ccc(N)c(Br)c5=O)ccnc4n3C)CC2)cc1 [Example 1d20, 4-[1-[[4-(4-Amino-3-bromo-2-oxo-1-pyridyl)-1-methyl-pyrrolo[2,3-b]pyridin-2-yl]methyl]-4-piperidyl]-N,N-dimethyl-benzamide]
EC50 ([1]; Homo sapiens, 48 h): 99.3 nM
Kd [2]: 16.1 nM

CNc1ccn(-c2ccnc3c2cc(CN2CC=C(c4ccc(C(=O)N(C)C)cc4OC)CC2)n3C)c(=O)c1 [Example 1m54, 3-Methoxy-N,N-dimethyl-4-(1-((1-methyl-4-(4-(methylamino)-2-oxopyridin-1 (2H)-yl)-1H-pyrrolo[2,3-b]pyridin-2-yl)methyl)-1,2,3,6-tetrahydropyridin-4-yl)benzamide]
EC50 ([1]; Homo sapiens, 48 h): 190 nM
Kd [2]: 18.5 nM

CN(C)C(=O)c1ccc(C2CCN(Cc3cc4c(-n5ccc(N)cc5=O)ccnc4n3C)CC2)cc1 [Example 1d1, 4-[1-[[4-(4-Amino-2-oxo-1-pyridyl)-1-methyl-pyrrolo[2,3-b]pyridin-2-yl]methyl]-4-piperidyl]-N,N-dimethyl-benzamide]
EC50 ([1]; Homo sapiens, 48 h): 119 nM
Kd [2]: 12.5 nM

CN(C)C(=O)c1ccc(C2CCN(Cc3cc4c(-n5ccc(N)nc5=O)ccnc4n3C)CC2)cc1 [Example 1ab6, 4-(1-((4-(4-Amino-2-oxopyrimidin-1 (2H)-yl)-1-methyl-1H-pyrrolo[2,3-b]pyridin-2-yl)methyl)piperidin-4-yl)-N,N-dimethylbenzamide]
Emax ([1]; Homo sapiens, 48 h, given for test compounds with <80% Emax): 70 to 80%
Kd [2]: 37.3 nM

CNc1ccn(-c2ccnc3c2cc(CN2CC[C@H](c4ccc(C(=O)N(C)C)cc4)[C@@H](F)C2)n3C)c(=O)c1 (single isomer, unassigned) [Example 1f3]
EC50 ([1]; Homo sapiens, 48 h): 289 nM
Kd [2]: 32.5 nM

CNc1ccn(-c2ccnc3c2cc(CN2CCN(c4ccc(C(=O)N(C)C)cc4C)CC2)n3C)c(=O)c1 [Example 1m6, N,N,3-Trimethyl-4-(4-((1-methyl-4-(4-(methylamino)-2-oxopyridin-1 (2H)-yl)-1H-pyrrolo[2,3-b]pyridin-2-yl)methyl)piperazin-1-yl)benzamide]
EC50 ([1]; Homo sapiens, 48 h): 74.7 nM
Kd [2]: 16.6 nM

CN(C)C(=O)c1ccc(C2CCN(Cc3cc4c(-n5ccc6[nH]nc(C(F)(F)F)c6c5=O)ccnc4n3C)C(=O)C2)cc1 (single isomer, unassigned) [Example 1ab2]
Eotaxin-3 Emax (%) ([1]; given for test compounds with <80% Emax): 50-60%
Kd [2]: 37.6 nM

CN(C)C(=O)c1ccc(C2CCN(Cc3cc4c(-n5cc(F)c(N)cc5=O)ccnc4n3C)CC2)cc1 [Example 1d19, 4-[1-[[4-(4-Amino-5-fluoro-2-oxo-1-pyridyl)-1-methyl-pyrrolo[2,3-b]pyridin-2-yl]methyl]-4-piperidyl]-N,N-dimethyl-benzamide]
EC50 ([1]; Homo sapiens, 48 h): 257 nM
Kd [2]: 32.9 nM

CN(C)C(=O)c1ccc(C2CCN(Cc3cc4c(-n5ccc6[nH]ncc6c5=O)ccnc4n3C)CC2)cc1 [Example 1j27, N,N-Dimethyl-4-[1-[[1-methyl-4-(4-oxo-1H-pyrazolo[4,3-c]pyridin-5-yl)pyrrolo[2,3-b]pyridin-2-yl]methyl]-4-piperidyl]benzamide]
EC50 ([1]; Homo sapiens, 48 h): 44.7 nM
Kd [2]: 9.79 nM
